The test system of test [1] is NIH 3T3 fibroblast cells. The test is described as follows: Inhibition of microtubules filament, Brillouin imaging of single suspended cell. In kind it is cell-based. The following applies: Noco 1 ug/mL for 30 minutes; single cell in suspension; FIG. 33A. How it is done: (§1) Two drugs, cytochalasin D (cytoD) and nocodazole (Noco), were applied to 3T3 cells to inhibit the actin filament and microtubules filament, respectively. NIH 3T3 fibroblast cells purchased from American Type Culture Collection (ATCC) were used for all experiments. Cells were cultured following standard protocols. For inhibitation of microtubules filament, cells were first treated by Noco of 1 ug/mL for 30 minutes, and then harvested by trypsinization and re-suspended in a solution of phosphate-buffered saline (PBS) without Mg^2+ and Ca^2+ at a concentration of ˜0.1 million cells per ML before measurement. Due to the low concentration, few cells were captured by flowing. Instead, a single cell in suspension was imaged after it was delivered into the microfluidic devices. […] The Brillouin shift of the treated cell 3312 is 0.29 GHz higher, indicating a distinct stiffening of its nucleus. Considering the sensitivity of the instrument is ˜0.01 GHz, microtubules filament-inhibited cells were easily identified from normal cells based on the mechanical stiffening of the nucleus.

In test [2] the test system is NIH 3T3 cell line. The test is described as follows: Chromatin decondensation experiment, Brillouin mechanical cytometry of TSA-treated cells. In kind it is cell-based. The following applies: TSA 100 ng/mL, 2 hours. The source says:
A vertically-polarized laser beam 2628 is first reflected by the polarized beam splitter (PBS) 2634 and focused into the center of a microfluidic channel 2624 from the bottom side by objective lens 2632. In one embodiment, a 11-mW single-mode linearly-polarized 532-nm cw laser (Torus, Laser Quantum) was used as a light source to excite Brillouin scattering. Due to the quarter-wave plate (QWP) 2626, the focused beam was circularly polarized. The backward scattered light was collected by the same objective lens 2632 and passed through the QWP 2626 again. The circularly-polarized light is eventually turned into horizontally-polarized one which is totally transmitted by the PBS 2634. […] The location of the focused Brillouin beam was pre-determined by removing the long-pass filter (LP) 2612. […] In one embodiment, a CCD camera 2610 and the Brillouin spectrometer 2638 were synchronized by a LabVIEW program so that the spectrometer's data can be assigned to the corresponding location of the measured sample. […] When a cell passes through the beam location (white dots indicated by the arrows), its Brillouin shift is measured. […]
Cells are cultured and re-suspended in a solution of phosphate-buffered saline (PBS) without Mg2+ and Ca2+. […] Cells without washing are then ready for fluorescence experiment. […]

Test [3] relates to F-actin. The following applies: attached cells treated with CytoD; cited from earlier work.
For test [4], the system named is cells (nucleus). The experiment in a line: Brillouin and fluorescence 2D imaging of cells with and without CytoD treatment (setup of FIG. 21). Type of test: cell-based. The following applies: treated vs control group, FIGS. 23a, 23b. The procedure:
FIG. 21 illustrates a Brillouin spectroscopy setup according to another embodiment of the current invention. In this embodiment, a second optical modality is added to acquire a co-registered confocal fluorescence image of the cell simultaneously when the cell is probed by the Brillouin beam. The second optical modality may comprise a dichroic mirror 2127, a tube lens 2122, a pinhole mask 2126, and a photo-detector 2125. The dichroic mirror 2127 will let the laser beam 2110 and the Brillouin signal pass through but reflects the fluorescence light. Compared with the bright-field microscope of FIG. 12, the confocal configuration has better transverse and lateral optical resolution by rejecting fluorescence light from the out-of-focus plane. In practice, fluorescently labelled cells can be used to identify a sub-region of a cell (e.g., nucleus) and the focused spot of laser beam 2110 can be used to directly excite fluorescence emission. Then, the confocal configuration is used to detect the fluorescence emission light by a camera 2125. Based on the intensity of the fluorescence emission light, one can accurately determine the location of the focused spot (and thus the Brillouin signal) inside the cell so that the Brillouin signal can be assigned to a targeted point. […]
As an example of classifying cells using the embodiment of FIG. 21, effect of CytoD on the cells was analyzed. […]

Test [5] has as its system adherent cells. The experiment in a line: Cytoskeletal stiffness of adherent cells treated with CytoD. In kind it is cell-based.
Test [6] concerns NIH 3T3 cell line. The test is described as follows: Brillouin flow cytometry of CytoD-treated suspended cells (setup of FIG. 12). Type of test: cell-based. The source says:
FIG. 12 illustrates an exemplary embodiment of the current invention resulting from a novel combination of an epi-detection path to excite/collect Brillouin signal, a monitoring imaging modality, a microfluidic device (or other cell plating device), a Brillouin spectrometer and a computer with software that links all of these sub-components. A first incoming illuminating beam 1210 is focused onto one spot inside a microfluidic device 1230 by using a beam splitter 1211 and an objective lens 1212. The illuminating laser beam 1210 may be a laser beam. In one embodiment, the first incoming laser beam 1210 is focused into spot of 1 to 10 μm. The backward Brillouin scattering light is collected by the same objective lens 1212 and guided to a Brillouin spectrometer 1215 via the beam splitter 1211, a reflected mirror 1213, and a coupling lens 1214. The Brillouin spectrometer 1215 is a device that can measure the Brillouin frequency shift accurately. One example of the Brillouin spectrometer 1215 is disclosed in Scarcelli Polachech 2015 Nature Methods Above the microfluidic device 1230, there is a bright-field microscope consisting of a second light source 1220 (usually has a different wavelength from laser beam 1210), a beam splitter 1221, a tube lens 1222, an objective lens 1224, and a 2D image recording device 1225. The purpose of this microscope setup is to monitor the flowing status of the cells inside the microfluidic device 1230. In one embodiment, the microscope setup further contains a spectral filter 1223, which blocks the light from the laser beam 1210, but allows the light from a light source 1220 to pass. […]
In yet another embodiment, a second approach, named as image-guided alignment, may be used to align the flowing cell to the focused spot of the laser beam 1210. […] Suppose a cell 1630 is flowing along y-direction (from top to bottom), once it appears in the field of view, its location (x1) and the horizontal shift (x0-x1) with respect to the focused spot 1620 can be determined. […] In this case, all of the measured data points were used to plot the histogram graph in FIG. 17a. […]
In general terms: In flow cytometry, cells or beads pass a laser one at a time.

Test [7] concerns NIH 3T3 fibroblast cells. The experiment in a line: Inhibition of actin filament, Brillouin-based label-free flow cytometry. Type of test: cell-based. The following applies: cytoD 2 ug/mL for 10 minutes; 232 treated cells; FIG. 33B. How it is done:
as §1
For inhibition of actin filament, cells were first treated by cytoD of 2 ug/mL for 10 minutes, and then harvested by trypsinization and re-suspended in a solution of phosphate-buffered saline (PBS) without Mg^2+ and Ca^2+ at a concentration of ˜1 million cells per mL before measurement. […]

As for `COC(=O)Nc1nc2ccc(C(=O)c3cccs3)cc2[nH]1` [Noco, nocodazole], the “increase of averaged Brillouin shift of the nucleus, treated cell vs control” value in test [1] stood at 0.29 GHz.
On to `CC(/C=C/C(=O)NO)=C\[C@@H](C)C(=O)c1ccc(N(C)C)cc1` [TSA, trichostatin A], for which the “Brillouin shift of the nucleus after treatment” value in test [2] (control nucleus 7.80 GHz, 356 treated cells) stood at 7.71 GHz. Further, the “Brillouin shift of the cytoplasm after treatment” value in test [2] (same as control) stood at 7.56 GHz.
In the case of `C=C1[C@@H](C)[C@H]2[C@H](Cc3ccccc3)NC(=O)[C@]23[C@H](OC(C)=O)/C=C/[C@@](C)(O)C(=O)[C@@H](C)C/C=C/[C@H]3[C@@H]1O` [CytoD, cytochalasin D], in test [3], the F-actin entry is reported as “dramatically reduced”. Moreover, the “nucleus stiffness (Brillouin signal vs fluorescence intensity)” value in test [4] was “much softened”. Besides, in test [5], the cytoskeletal stiffness result is reported as “markedly reduced”. In test [6] (NIH 3T3, suspended after trypsinization, CytoD 0.5, 2, 5 ug/ml, FIGS. 20b-20e), the “Brillouin frequency shift of cytoplasm peaks” value was “almost no change”. In addition, the “stiffness of the cells (average Brillouin frequency shift over the whole cell)” value in test [6] (NIH 3T3, suspended in PBS, CytoD 0.5, 2 and 5 ug/ml, FIG. 20a) was “dose dependent effect”. Further, in test [6] (NIH 3T3, suspended, increasing dose of CytoD 0.5, 2, 5 ug/ml, FIGS. 20b-20e), the “Brillouin frequency shift of nucleus peak (nucleus stiffness)” value is listed as “nucleus is getting softer”. Further, the “decrease of averaged Brillouin shift of the nucleus, treated group vs control group” value in test [7] is 0.12 GHz.

The record behind these values is US10732092B2, “Analysis of single cell mechanical phenotyping for metastatic detection” (University of Maryland, College Park, priority 2015, dated 2020).
